Experimental data reported in US10058587B2, “Peptide composition for cancer treatment by inhibiting TRPV6 calcium channel activity” (priority 2008, dated 2018).
Where no end group is shown, it is not given here.

What was measured:
[1] = system: MCF 10A non-cancerous breast cell line; assay: Induction of apoptosis (APO-ONE caspase 3/7) and cell viability (CellTiter Blue); format: cell-based, human; set-up: key to Decline in cell viability: cell viability decreased (+); or not (−)
Experimental: (§1) MCF-10A, MCF-12A were cultured in 50% DMEM plus 50% Ham's F12 modified with 2 mM L-glutamine, 1 mM sodium pyruvate, 0.01 mg/mL bovine insulin, 500 ng/mL hydrocortisone, 50 ug/mL of penicillin and streptomycin. The combined medium was supplemented with 5% (v/v) fetal bovine serum.
(§2) The levels of apoptotic induction and cell viability were determined by multiplexing the measurements for single samples. CellTiter Blue and APO-ONE assay systems from Promega allows the determination of cell viability correlated to cell number, and induction of apoptosis. This protocol uses a fluorgenic peptide that contains a peptide recognition-sequence for caspase 3 and caspase 7, […] proteolytic enzymes of the apoptosis cascade. The CellTiter Blue reagent was added to wells in a 96-well plate containing cells under test, immediately after addition of peptide solution or vehicle. About 5000 cells were plated into the wells the day before. At the chosen time (Day 1, Day 2 etc.) the fluorescence was measured at 590 nm (emission) after excitation at 560 nm. The caspase 3/7 activity was measured (485 nm Ex/527 nm Em) in the same wells after adding 120 uL of the Apo-ONE reagent, freeze fracturing at −80° C. for 1 hr, and incubating for 1 hr at room temperature.
(§3) For this work, the concentrations of SorC13 and SorC27 used were 0 uM, 1 uM, 10 uM and 100 uM. The experiments extended over a 5 to 7 day period. All measurements were done in quadruplicate with both a blank (no cells) and control (vehicle, no peptide) used to correct the test measurements. The time-response data, and the dose-response data were plotted as means±standard error of the mean. Any statistical comparisons were done with the Student's t-test or by ANOVA analysis over the dose course. The level of statistical significance was considered to be the 95% confidence interval (i.e., p≤0.05).

[2] = system: MCF 12A non-cancerous breast cell line; assay: as above; format: cell-based, human; set-up: key to Decline in cell viability: cell viability decreased (+); or not (−)
Experimental: as §1, §2, §3

[3] = system: OVCAR3 ovarian cancer cell line; assay: as above; format: cell-based, human; set-up: key to Decline in cell viability: decreased (+); or not (−); conditions: for apoptosis (treatment:control ratio) compared with CAT cocktail: CAT = 10 uM Paclitaxel, 20 mM carboplatin
Experimental: OVCAR-3 was cultured in RPMI 1640 medium supplemented with 1.0 mM sodium pyruvate, 0.01 mg/mL insulin and 10% (v/v) fetal bovine serum.
as §2, §3
(§4) To compare the effect of the two SorC-peptides against the gold-standard treatment for ovarian cancers SorC13 or SorC27 was compared to treatment with a carboplatin and taxol (CAT) cocktail (10 uM Paclitaxel, 20 mM carboplatin) using the APO-ONE assay, which measures the combined activities of caspase 3 and caspase 7. Because of the mixed treatment (CAT), the effects were compared in terms of the ratio of treatment:control. If no effect was noted then the ratio=1. Comparisons of the treatment:control ratios were examined with the Student's t-test at a confidence level of 95%. Ratios of larger than a value of unity indicated a positive effect. The effects are illustrated in FIG. 5.

[4] = system: SKOV3 ovarian cancer cell line; assay: as above; format: cell-based, human; set-up: key to Decline in cell viability: decreased (+); or not (−); conditions: for apoptosis (treatment:control ratio) compared with CAT cocktail: CAT = 10 uM Paclitaxel, 20 mM carboplatin
Experimental: SKOV-3 was cultured in […] medium supplemented with 1.5 mM L-glutamine, 2.2 g/L sodium bicarbonate and 10% (v/v) fetal bovine serum.
as §2, §3, §4

[5] = system: NIH-OVCAR-3 and SKOV3 cells; assay: Ovarian adenocarcinoma xenograft model (Example 14, general results); format: in vivo, NOD/SCID mice; conditions: 400 mg/kg body weight
Experimental: Optionally, to implant NIH-OVCAR-3 or SKOV3 tumor cells into NOD/SCID mice, cell cultures are centrifuged to pellet the cells, the supernatant is aspirated, the cell pellet is resuspended in 10 ml of growth media and the cell number is determined using a hemocytometer. The cells are then washed in appropriate media and re-suspended at a concentration of 5×10^7 cells/ml in media. Using a 27 gauge needle and 1 cc syringe, 0.1 ml of the cell suspension is injected subcutaneously into the flanks of the mice. Tumors are then permitted to develop in vivo until the majority reach 100-200 mm^3 in tumor volume, which typically requires 1-2 weeks following implantation. These tumors are used to produce tissue subcutaneous implants into NOD/SCID mice which after 2 days are treated with either the test peptides or CAT.
Tumor volumes (V) are calculated by caliper measurement using standard measurements of the width (W), length (L) and thickness (T) of tumors. Animals are randomized into treatment groups so that the median tumor volumes of each group were similar at the start of dosing. % T/C values, as a measure of efficacy, are determined where C refers to volume of control or untreated tumor, and T refers to volume of treated tumor.
Animals are intraperitoneally (i.p.) injected with this formulation at 10 ml per kg body weight on a schedule.

PC3 and LnCaP clone FGC = assay: Apoptosis and cell viability in prostate cancer cell lines (Example 10); format: cell-based, human; conditions: 0, 10 and 100 uM, 5 to 7 days
Experimental: (§5) For this work, the concentrations of SorC13 and SorC27 used are 0 uM, 10 uM and 100 uM. The experiments extend over a 5 to 7 day period. All measurements are done in quadruplicate with both a blank (no cells) and control (vehicle, no peptide) used to correct the test measurements. The time-response data, and the dose-response data are plotted as means±standard error of the mean.
The cell lines PC3 (from ATCC CRL-1435) and LnCaP clone FGC (from ATCC CRL-1740), obtained from the American Type Culture Collection (ATCC) and grown under the recommended conditions and in culture media recommended by ATCC. The cell lines are cultured under sterile conditions at 37° C., in a humidified 5% CO2 atmosphere.
Induction of apoptosis and attendant decrease is observed in cell viability in the cancer cell lines. From the large increases in the activities of the caspase3/7 activity, it is clear that there is a time dependent effect and a dose dependent effect on the induction of apoptosis.

K-562 = assay: Apoptosis and cell viability in CML cell line (Example 12); format: cell-based, human; conditions: 0, 10 and 100 uM, 5 to 7 days
Experimental: as §5
The cell line K-562 (from ATCC CCL-243) is grown under the recommended conditions and in culture media recommended by ATCC. The cell lines were cultured under sterile conditions at 37° C., in a humidified 5% CO2 atmosphere.
Induction of apoptosis and attendant decrease is observed in cell viability in the cancer cell lines. From the large increases in the activities of the caspase 3/7 activity, it is clear that there is a time dependent effect and a dose dependent effect on the induction of apoptosis.

mealworm larvae = assay: Mealworm larva paralytic bioassay; format: in vivo

With EGKLSSNDTEGGLCKEFLHPSKVDLPR [SorC27] the “Apoptosis Index (1 = no effect)” value ([1]; SorC27 100 μM) was 1.0, the “Decline in cell viability” value ([1]; SorC27 100 μM) was “−” and the “Apoptosis Index (1 = no effect)” value ([2]; SorC27 100 μM) was 1.0. The “Decline in cell viability” value ([2]; SorC27 100 μM) was “−”, the “apoptosis (treatment:control ratio) compared with CAT cocktail” value (“apoptosis (treatment:control ratio)” for short) [3] was “produced apoptosis sooner and more intensely than the CAT cocktail” and the “Apoptosis Index (1 = no effect)” value ([3]; Day 3, SorC27 10 uM) was 2.2. The “Apoptosis Index (1 = no effect)” value ([3]; Day 3, SorC27 100 uM) was 2.2, the “Apoptosis Index (1 = no effect)” value ([3]; Day 5, SorC27 10 uM) was 4.1 and the “Apoptosis Index (1 = no effect)” value ([3]; Day 5, SorC27 100 uM) was 6.3. The “Decline in cell viability” value ([3]; SorC27) was “+”, the “apoptosis (treatment:control ratio)” value [4] was “produced apoptosis sooner and more intensely than the CAT cocktail” and the “Apoptosis Index (1 = no effect)” value ([4]; Day 2, SorC27 10 uM) was 2.7. For the same sequence, the “Apoptosis Index (1 = no effect)” value ([4]; Day 2, SorC27 100 uM) was 1.5, the “Apoptosis Index (1 = no effect)” value ([4]; Day 3, SorC27 1 uM) was 1.7 and the “Apoptosis Index (1 = no effect)” value ([4]; Day 3, SorC27 10 uM) was 2.4. The “Apoptosis Index (1 = no effect)” value ([4]; Day 3, SorC27 100 uM) was 2.7, the “Decline in cell viability” value ([4]; SorC27) was “+” and the “growth rate of tumor cells” value [5] was “substantially decreases the growth rate”. For the same sequence, the “induction of apoptosis and cell viability” value (from here on “induction”) (PC3 and LnCaP clone FGC) was “induces apoptosis and decreases cell viability”, the “induction” value (K-562) was “induces apoptosis and decreases cell viability” and the “Physiol. effects in vivo (mealworm larvae); 5 mg/kg” value (mealworm larvae) was “Not paralytic”.

KEFLHPSKVDLPR [SorC13, KEFLHPSKVDLPR] was tested, and the “Apoptosis Index (1 = no effect)” value ([1]; SorC13 100 uM) was 1.0, the “Decline in cell viability” value ([1]; SorC13 100 uM) was “−” and the “Apoptosis Index (1 = no effect)” value ([2]; SorC13 100 uM) was 1.0. The “Decline in cell viability” value ([2]; SorC13 100 uM) was “−”, the “apoptosis (treatment:control ratio)” value [3] was “produced earlier and more intense apoptosis cascade than the CAT cocktail” and the “Apoptosis Index (1 = no effect)” value ([3]; Day 4, SorC13 100 uM) was 1.4. For the same sequence, the “Apoptosis Index (1 = no effect)” value ([3]; Day 5, SorC13 100 uM) was 1.7, the “Decline in cell viability” value ([3]; Day 5, SorC13 100 uM) was “+” and the “apoptosis (treatment:control ratio)” value [4] was “produced earlier and more intense apoptosis cascade than the CAT cocktail”. The “Apoptosis Index (1 = no effect)” value ([4]; Day 4, SorC13 100 uM) was 2.2, the “Apoptosis Index (1 = no effect)” value ([4]; Day 5, SorC13 100 uM) was 2.7 and the “Decline in cell viability” value ([4]; Day 5, SorC13 100 uM) was “+”. The “growth rate of tumor cells” value [5] was “substantially decreases the growth rate”, the “induction” value (PC3 and LnCaP clone FGC) was “induces apoptosis and decreases cell viability” and the “induction” value (K-562) was “induces apoptosis and decreases cell viability”. The “Physiol. effects in vivo (mealworm larvae); 5 mg/kg” value (mealworm larvae) was “Not paralytic”.
